Assay: Inhibition of BTK in human TMD8 cells assessed as reduction in cell proliferation incubated for 24 hrs by CCK-8 assay

Question: Which IC50 does the source give for C=CC(=O)Nc1cccc(Nc2ncnc(Nc3ccc(C(=O)N4CCCCC4)cc3)n2)c1 here?
Answer: 4.36 µM

From BindingDB's records for doi:10.1016/j.ejmech.2020.112339 (China Pharmaceutical University, 2020)
